According to patent publication US20190218226A1, “PRODRUGS OF ANTICANCER AGENTS INDOTECAN AND INDIMITECAN” (Purdue Research Foundation, priority 2016, published 2019):
Like-named read-outs stand apart in the source and are kept apart here.

Legend:
SF-539 = assay: NCI60 antiproliferative screen, CNS SF-539; assay type: cell-based, human; settings: SF-539, 48 h, sulforhodamine B, read-out: Cytotoxicity (GI50) CNS SF-539
Protocol: (§1) All of the indenoisoquinolines were tested for antiproliferative activity in the National Cancer Institute's 60 cell line screen (NCI60). The cells were incubated with the tested compounds at 100, 10, 1, 0.1, and 0.01 μM concentrations for 48 h before treatment with sulforhodamine B dye. Optical densities were recorded, and their ratios relative to that of the control were plotted as percentage growth against the log 10 of the tested compound concentrations. The concentration that corresponds to 50% growth inhibition (GI50) is calculated by interpolation between the points located above and below the 50% percentage growth. The mean-graph midpoint (MGM) is an estimated average of the GI50 values derived from the NCI collection of 60 human cancer cell lines, where during the MGM calculation, anticancer agents with GI50 values that are outside the testing range of 0.01-100 μM are arbitrarily assigned the values of 0.01 and 100 μM, respectively. […] Also, the GI50 values of many of the substances vs. individual human cancer cell lines are below the lowest concentration used (0.01 μM) in the standard NCI testing protocol. […] For example, the MGM cytotoxicity values of 9, 15-17, and 19 are all very close to each other, but the Top1 inhibitory activities range from +++(+) to 0.

HCT-116 = assay: NCI60 antiproliferative screen, colon HCT-116; assay type: cell-based, human; settings: HCT-116, 48 h, sulforhodamine B, read-out: Cytotoxicity (GI50) Colon HCT-116
Protocol: as §1

[1] = test system: all human cancer cell lines successfully tested (NCI60); assay: NCI60 mean graph midpoint for growth inhibition; assay type: cell-based; settings: for mean GI50 across NCI60 cell lines (MGM): all human cancer cell lines successfully tested, ± standard error, read-out: MGM (mean graph midpoint for growth inhibition)
Protocol: as §1

OVCAR-3 = assay: NCI60 antiproliferative screen, ovarian OVCAR-3; assay type: cell-based, human; settings: OVCAR-3, 48 h, sulforhodamine B, read-out: Cytotoxicity (GI50) Ovarian OVCAR-3
Protocol: as §1

MCF-7 = assay: NCI60 antiproliferative screen, breast MCF-7; assay type: cell-based, human; settings: MCF-7, 48 h, sulforhodamine B, read-out: Cytotoxicity (GI50) breast MCF-7
Protocol: as §1

Human recombinant Top1 = target: T1, Human recombinant Top1 (Homo sapiens, UniProt P11387); assay: Top1-mediated DNA cleavage assay; assay type: biochemical; parameters: key to Top1 inhibitory activity (level): 0, no detectable activity; +, weak activity; ++, similar activity to compound 4; +++, greater activity than 4; ++++, equipotent with 1; ++(+) would be between ++ and +++; key to Top 1 Cleavage: 0, no inhibitory activity; +, between 20 and 50% activities; ++, between 50 and 75% activity; +++, between 75 and 95% activity; ++++, equipotent; settings: for Top1 inhibitory activity (level): scored relative to compounds 1 and 4; for Top 1 Cleavage: graded relative to 1 μM camptothecin
T1 construct: made in house
T1 sequence (P11387 1-765): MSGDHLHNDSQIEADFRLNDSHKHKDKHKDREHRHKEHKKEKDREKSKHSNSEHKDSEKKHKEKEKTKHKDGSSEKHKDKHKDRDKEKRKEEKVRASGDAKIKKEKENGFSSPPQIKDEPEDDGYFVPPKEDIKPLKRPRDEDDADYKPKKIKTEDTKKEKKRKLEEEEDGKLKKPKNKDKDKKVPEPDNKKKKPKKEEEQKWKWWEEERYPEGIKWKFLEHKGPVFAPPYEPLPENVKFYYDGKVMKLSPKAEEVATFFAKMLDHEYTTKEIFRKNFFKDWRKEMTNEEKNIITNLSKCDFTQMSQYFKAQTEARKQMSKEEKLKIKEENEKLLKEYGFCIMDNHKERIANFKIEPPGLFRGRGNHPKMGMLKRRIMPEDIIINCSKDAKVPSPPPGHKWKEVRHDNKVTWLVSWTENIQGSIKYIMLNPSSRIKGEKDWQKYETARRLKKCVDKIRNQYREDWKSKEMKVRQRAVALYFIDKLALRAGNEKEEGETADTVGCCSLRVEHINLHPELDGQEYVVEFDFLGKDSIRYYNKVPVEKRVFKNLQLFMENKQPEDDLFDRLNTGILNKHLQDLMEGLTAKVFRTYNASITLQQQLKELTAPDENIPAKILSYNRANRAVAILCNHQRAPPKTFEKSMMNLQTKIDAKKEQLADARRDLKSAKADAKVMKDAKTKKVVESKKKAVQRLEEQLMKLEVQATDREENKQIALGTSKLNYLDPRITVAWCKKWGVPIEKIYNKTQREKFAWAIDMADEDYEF
Protocol: All of the new indenoisoquinoline derivatives were tested in Top1-mediated DNA cleavage assays. For this purpose, a ^32P 3′-end labeled 117-bp DNA fragment was incubated with Top1 at four concentrations of a tested compound. The DNA fragments were separated on 20% PAGE denaturing gels. The Top1 inhibitory activities were assigned on the basis of the visual inspection of the number and intensities of the gel bands corresponding to Top1-mediated DNA cleavage fragments and scored relative to the Top1 inhibitory activity of compounds 1 and 4. Results are expressed in semiquantitative fashion: 0, no detectable activity; +, weak activity; ++, similar activity to compound 4; +++, greater activity than 4; ++++, equipotent with 1. Ambiguous scores (e.g., between two values) are designated with parentheses (e.g., ++(+) would be between ++ and +++). […] After conversion of the hydroxyl to a dimethylcarbamate, the observed Top1 inhibitory activity increased from ++(+) for compound 8 to +++ for compound 10. Introduction of an acetyl group at the 0-2 position yielded compound 11, which was also a Top1 poison with activity at the ++ level. Subsequently, several hydrophobic substituents were attached to the 0-2 position.
Topoisomerase I-Mediated DNA Cleavage Reactions.
Human recombinant Top1 was purified from baculovirus as previously described (Morrell, A., et al., J. Med. Chem. 2007, 50, 2040-2048). DNA cleavage reactions were prepared as previously reported with the exception of the DNA substrate (Strumberg, D., et al., J. Med. Chem. 1999, 42, 446-457). Briefly, a 117-bp DNA oligonucleotide (Integrated DNA Technologies) encompassing the previously identified Top1 cleavage sites in the 161-bp fragment from pBluescript SK(−) phagemid DNA was employed. This 117-bp oligonucleotide contains a single 5′-cytosine overhang, which was 3′-end-labeled by fill-in reaction with [α-^32P]dGTP in React 2 buffer (50 mM Tris-HCl, pH 8.0, […], 50 mM NaCl) with 0.5 unit of DNA polymerase I (Klenow fragment, New England BioLabs). Unincorporated [^32P]dGTP was removed using mini Quick Spin DNA columns (Roche, Indianapolis, Ind.), and the eluate containing the 3′-end-labeled DNA substrate was collected. Approximately 2 nM radiolabeled DNA substrate was incubated with recombinant Top1 in 20 μL of reaction buffer [10 mM Tris-HCl (pH 7.5), 50 mM KCl, 5 mM MgCl2, 0.1 mM EDTA, and 15 μg/mL BSA] at 25° C. for 20 min in the presence of various concentrations of compounds. The reactions were terminated by adding SDS (0.5% final concentration) followed by the addition of two volumes of loading dye (80% formamide, 10 mM sodium hydroxide, 1 mM sodium EDTA, 0.1% xylene cyanol, and 0.1% bromophenol blue). Aliquots of each reaction mixture were subjected to 20% denaturing PAGE. Gels were dried and visualized by using a phosphoimager and ImageQuant software (Molecular Dynamics). For simplicity, cleavage sites were numbered as previously described in the 161-bp fragment.

SN12C = assay: NCI60 antiproliferative screen, renal SN12C; assay type: cell-based, human; settings: 48 h, sulforhodamine B, read-out: Cytotoxicity (GI50) renal SN12C
Protocol: as §1

HOP-62 = assay: NCI60 antiproliferative screen, lung HOP-62; assay type: cell-based, human; settings: HOP-62, 48 h, sulforhodamine B, read-out: Cytotoxicity (GI50) lung HOP-62
Protocol: as §1

UACC-62 = assay: NCI60 antiproliferative screen, melanoma UACC-62; assay type: cell-based, human; settings: UACC-62, 48 h, sulforhodamine B, read-out: Cytotoxicity (GI50) melanoma UACC-62
Protocol: as §1

DU-145 = assay: NCI60 antiproliferative screen, prostate DU-145; assay type: cell-based, human; settings: DU-145, 48 h, sulforhodamine B, read-out: Cytotoxicity (GI50) prostate DU-145
Protocol: as §1

Row | Top1 inhibitory activity (level) (Human recombinant Top1) | Top 1 Cleavage (Human recombinant Top1) | Structure (SMILES) | GI50 (SF-539; Homo sapiens) [nM] | GI50 (HCT-116; Homo sapiens) [nM] | mean GI50 across NCI60 cell lines (MGM) [1] [nM] | GI50 (OVCAR-3; Homo sapiens) [nM] | GI50 (MCF-7; Homo sapiens, MCF7) [nM] | GI50 (SN12C; Homo sapiens) [nM] | GI50 (HOP-62; Homo sapiens) [nM] | GI50 (UACC-62; Homo sapiens) [nM] | GI50 (DU-145; Homo sapiens) [nM] | GI50 (SF-539) [nM] | GI50 (HCT-116) [nM] | cytotoxicity relative to parent compound (in words) ([1]; NCI60) | GI50 (OVCAR-3) [nM] | GI50 (MCF-7) [nM] | GI50 (SN12C) [nM] | GI50 (HOP-62) [nM] | GI50 (UACC-62) [nM] | GI50 (DU-145) [nM] | other results
1 | ++(+) |  | COc1cc2c(=O)n(CCCN3CCOCC3)c3c(c2cc1O)C(=O)c1cc2c(cc1-3)OCO2 [Compound 8] | 335 | 279 | 412 | 871 | 144 | 195 | 257 | 282 | 257 |  |  |  |  |  |  |  |  |  | 
2 |  |  | COc1cc2c3c(n(CCCN4CCOCC4)c(=O)c2cc1O)-c1cc2c(cc1C3=O)OCO2 [Compound 9] | < 10 | 20 | 76 ± 28 | 30 | < 10 | < 10 | 10 | < 10 | < 10 |  |  |  |  |  |  |  |  |  | 
3 | ++ | ++ (++, between 50 and 75% activity) | COc1cc2c(=O)n(CCCN3CCOCC3)c3c(c2cc1OC(C)=O)C(=O)c1cc2c(cc1-3)OCO2 [Compound 11, 3-Methoxy-6-(3-morpholinopropyl)-5,12-dioxo-6,12-dihydro-5H-[1,3]dioxolo[4′,5′:5,6]indeno[1,2-c]isoquinolin-2-yl Acetate] |  |  | 43 ± 19 |  |  |  |  |  |  | < 10 | 29 | greater than the parent 8 by a factor of almost one order of magnitude | 138 | < 10 | < 10 | 18 | 18 | < 10 | 
4 | + | + (+, between 20 and 50% activities) | COC(=O)CCC(=O)Oc1cc2c3c(n(CCCN4CCOCC4)c(=O)c2cc1OC)-c1cc2c(cc1C3=O)OCO2 [Compound 12, 3-Methoxy-6-(3-morpholinopropyl)-5,12-dioxo-6,12-dihydro-5H-[1,3]dioxolo[4′,5′:5,6]indeno[1,2-c]isoquinolin-2-yl Methyl Succinate] |  |  | 49 ± 8 |  |  |  |  |  |  | < 10 | 14 | greater than the parent 8 by a factor of almost one order of magnitude | 66 | < 10 | < 10 | < 10 | < 10 | < 10 | 
5 | + | + (+, between 20 and 50% activities) | COc1cc2c(=O)n(CCCN3CCOCC3)c3c(c2cc1OC(=O)c1ccccc1)C(=O)c1cc2c(cc1-3)OCO2 [Compound 13, 3-Methoxy-6-(3-morpholinopropyl)-5,12-dioxo-6,12-dihydro-5H-[1,3]dioxolo[4′,5′:5,6]indeno[1,2-c]isoquinolin-2-yl Benzoate] |  |  | 1500 ± 170 |  |  |  |  |  |  | 37 | 850 | significantly less cytotoxic than their respective parent compounds | 4570 | 33 | 54 | 79 | 96 | 51 | GI50's against various cell lines (range in words) ([1]; NCI60): micromolar range; Top1 inhibitory activity (in words) (Human recombinant Top1): weak Top1 poisons
6 |  | 0 | COc1cc2c3c(n(CCCN4CCOCC4)c(=O)c2cc1OC(C)=O)-c1cc2c(cc1C3=O)OCO2 [Compound 16, 2-Methoxy-6-(3-morpholinopropyl)-5,12-dioxo-6,12-dihydro-5H-[1,3]dioxolo[4′,5′:5,6]indeno[1,2-c]isoquinolin-3-yl Acetate] |  |  | 95 ± 45 |  |  |  |  |  |  | < 10 | < 10 |  | 269 | < 10 | < 10 | < 10 | < 10 | < 10 | 
